What was measured:
Assay in all cases: relative viability (nuclei count vs DMSO), 5 days (fraction); higher = more cells survive
BX 795 + Palbociclib = compound: O=C(NCCCNc1nc(Nc2cccc(NC(=O)N3CCCC3)c2)ncc1I)c1cccs1 [BX 795] + CC(=O)c1c(C)c2cnc(Nc3ccc(N4CCNCC4)cn3)nc2n(C2CCCC2)c1=O [Palbociclib] (partner 0.5 µM)
Outline: (§1)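 Relative viability is defined as nuclei in treated wells over nuclei in vehicle wells. Duplicate plates were run and medians reported. Lung cancer cell lines in 1536-well plates were dosed by pin tool one day after seeding, with one drug or with a fixed anchor-drug dose plus five library-drug doses (not always all listed) in √10 steps, and nuclei were counted after 5 days.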

BX 795 + Pictilisib = compound: O=C(NCCCNc1nc(Nc2cccc(NC(=O)N3CCCC3)c2)ncc1I)c1cccs1 [BX 795] + CS(=O)(=O)N1CCN(Cc2cc3nc(-c4cccc5[nH]ncc45)nc(N4CCOCC4)c3s2)CC1 [Pictilisib] (partner 1 µM)
Outline: as §1

BX 795 + OSI-027 = compound: O=C(NCCCNc1nc(Nc2cccc(NC(=O)N3CCCC3)c2)ncc1I)c1cccs1 [BX 795] + COc1cccc2cc(-c3nc([C@H]4CC[C@H](C(=O)O)CC4)n4ncnc(N)c34)[nH]c12 [OSI-027] (partner 0.5 µM)
Outline: as §1

BX 795 + Phenformin = compound: O=C(NCCCNc1nc(Nc2cccc(NC(=O)N3CCCC3)c2)ncc1I)c1cccs1 [BX 795] + N=C(N)NC(=N)NCCc1ccccc1 [Phenformin] (partner 250 µM)
Outline: as §1

BX 795 + Luminespib = compound: O=C(NCCCNc1nc(Nc2cccc(NC(=O)N3CCCC3)c2)ncc1I)c1cccs1 [BX 795] + CCNC(=O)c1noc(-c2cc(C(C)C)c(O)cc2O)c1-c1ccc(CN2CCOCC2)cc1 [Luminespib] (partner 0.01 µM)
Outline: as §1

Row | Cell Line | relative viability (BX 795 + Palbociclib; first compound 0.04 µM) | relative viability (BX 795 + Palbociclib; first compound 0.1265 µM) | relative viability (BX 795 + Palbociclib; first compound 0.4 µM) | relative viability (BX 795 + Palbociclib; first compound 1.265 µM) | relative viability (BX 795 + Pictilisib; first compound 0.04 µM) | relative viability (BX 795 + Pictilisib; first compound 0.1265 µM) | relative viability (BX 795 + Pictilisib; first compound 0.4 µM) | relative viability (BX 795 + Pictilisib; first compound 1.265 µM) | relative viability (BX 795 + OSI-027; first compound 0.04 µM) | relative viability (BX 795 + OSI-027; first compound 0.1265 µM) | relative viability (BX 795 + OSI-027; first compound 0.4 µM) | relative viability (BX 795 + OSI-027; first compound 1.265 µM) | relative viability (BX 795 + Phenformin; first compound 0.04 µM) | relative viability (BX 795 + Phenformin; first compound 0.1265 µM) | relative viability (BX 795 + Phenformin; first compound 0.4 µM) | relative viability (BX 795 + Phenformin; first compound 1.265 µM) | relative viability (BX 795 + Luminespib; first compound 0.04 µM) | relative viability (BX 795 + Luminespib; first compound 0.1265 µM) | relative viability (BX 795 + Luminespib; first compound 0.4 µM) | relative viability (BX 795 + Luminespib; first compound 1.265 µM)
1 | NCI-H2087 | 0.219 | 0.248 | 0.322 | 0.209 | 0.999 | 1.02 | 1.03 | 0.756 | 0.793 | 0.82 | 0.848 | 0.502 | 0.547 | 0.545 | 0.563 | 0.411 | 0.188 | 0.199 | 0.157 | 0.147
2 | NCI-H1944 | 0.381 | 0.33 | 0.411 | 0.325 | 0.376 | 0.329 | 0.367 | 0.363 | 0.51 | 0.459 | 0.488 | 0.381 | 0.254 | 0.203 | 0.234 | 0.191 | 0.739 | 0.729 | 0.758 | 0.595
3 | COR-L23 | 0.359 | 0.287 | 0.253 | 0.191 | 0.909 | 0.899 | 0.75 | 0.538 | 0.843 | 0.769 | 0.82 | 0.501 | 0.391 | 0.411 | 0.431 | 0.234 | 0.576 | 0.573 | 0.71 | 0.197
4 | NCI-H1355 | 0.418 | 0.346 | 0.388 | 0.393 | 0.451 | 0.423 | 0.436 | 0.424 | 0.407 | 0.405 | 0.44 | 0.379 | 0.491 | 0.455 | 0.465 | 0.357 | 0.721 | 0.787 | 0.874 | 0.579
5 | HOP-62 | 0.471 | 0.465 | 0.502 | 0.47 | 0.803 | 0.586 | 0.682 | 0.66 | 0.833 | 0.917 | 0.84 | 0.768 | 0.711 | 0.744 | 0.789 | 0.667 | 0.81 | 1.01 | 1.08 | 1.02
6 | PC-14 | 0.516 | 0.498 | 0.485 | 0.318 | 0.654 | 0.758 | 0.564 | 0.439 | 0.738 | 0.968 | 0.572 | 0.475 | 0.533 | 0.488 | 0.633 | 0.289 | 0.138 | 0.113 | 0.138 | 0.117
7 | NCI-H1793 | 0.386 | 0.246 | 0.384 | 0.296 | 0.399 | 0.333 | 0.333 | 0.257 | 0.34 | 0.292 | 0.329 | 0.241 | 0.358 | 0.35 | 0.366 | 0.289 | 0.153 | 0.137 | 0.168 | 0.182
8 | NCI-H1792 | 0.724 | 0.633 | 0.643 | 0.613 | 0.286 | 0.269 | 0.24 | 0.191 | 0.765 | 0.728 | 0.702 | 0.53 | 0.431 | 0.463 | 0.216 | 0.178 | 0.477 | 0.336 | 0.432 | 0.384
